# Measurements taken from patent EP4600262A1, “KERATIN YK93-5, PREPARATION METHOD, AND PHARMACEUTICAL COMPOSITION AND USE THEREOF” (INSTITUTE OF MATERIA MEDICA, CHINESE ACADEMY OF MEDICAL …, priority 2022, dated 2024).
# Where a name gives a salt, the structure may show the parent alone.
# Columns and labels:
# [1] = tested on: mouse pain model; assay: mouse pain model (1% acetic acid writhing); assay type: in vivo, Male Kunming mice; details: within 15 minutes after 1% acetic acid intraperitoneally; Tramadol Hydrochloride 50mg/kg, YK93-5 2g/kg by gavage once a day for 7 days
# Method: 30 minutes after the last administration, 1% acetic acid was administered intraperitoneally, and the writhing times of mice within 15 minutes was recorded, and the inhibition rate of drug-induced writhing reaction was calculated. The observation criteria were concave abdominal cavity, extended hind limbs, and raised buttocks.
# The inhibition rate was calculated by (Mean number of writhing reactions in the normal control group - Mean number of writhing reactions in the treatment group)/Mean number of writhing reactions in the normal control group *100%. The mean value, standard deviation, and standard error of the number of writhing was recorded, and the data from the groups were compared with each other by T.TEST, and P<0.05 was considered as a significant difference.
# [2] = tested on: mouse prostatic hyperplasia model; assay: mouse prostatic hyperplasia model (propionate testosterone, androgen loading); assay type: in vivo, Male Kunming mice; details: finasteride 1mg/kg, YK93-5 0.5g/kg
# Method: • Animals: Male Kunming mice, weight: 18-20 grams • Drugs: propionate testosterone injection (Ningbo Second Hormon Factory); finasteride (Merck Sharp & Dohme, MSD), YK93-5 • Instruments: electronic balance, timer
# • Normal control group; • Model group: Androgen loading Model; • Positive control group: finasteride (1mg/kg) group; • YK93-5 (0.5g/kg) group.
# • Preparation of experimental animals: The experimental animals were adapted to the experimental environment (temperature 22°C±2°C, relative humidity 50%±2%) for 1 day. • Subcutaneous injection of propionate testosterone to replicate mice prostatic hyperplasia model: Mice were randomly grouped 10-12 in each group before the model being established. Propionate testosterone (0.01mg/kg) in soybean oil was injected subcutaneously, once a day for 30 consecutive days. Mice in the normal control group were injected subcutaneously with an equal volume of sodium carboxymethyl cellulose. Immediately after the model was established, finasteride 1mg/kg, or YK93-5 0.5g/kg were orally administered. Mice were weighed on the next day. After 30 days of administration, mice were weighed, executed. The prostate was excised through a median incision in the lower abdomen, the wet weight was weighed, and the prostate index was calculated by the wet weight of the prostate (mg)/body weight of the mouse (g). […] with 4% paraformaldehyde, embedded in paraffin, and cut into thin slices with the largest surface. Hematoxylin and eosin staining were used to examine the pathological changes of tissue slices.
# The average value, standard deviation and standard error of the prostate index and pathological score in each group were calculated. The data from the groups were compared with each other by TTEST, and P<0.05 was considered as a significant difference.
# [3] = tested on: B16F10 melanoma; details: CTX 0.1 g/kg once a week, YK93-5 2 g/kg daily
# Method: • Preparation of experimental animals: The experimental animals were adapted to the experimental environment (temperature 22°C±2°C, relative humidity 50%±2%) for 1 day. • Subcutaneous inoculation of B16F10 cell suspension to replicate a mouse melanoma model: Under sterile conditions, the tumor block was removed, ground into tumor fluid, the concentration was adjusted with physiological saline to 2.58 × 10^6 /ml, and 0.2 ml was taken to evenly inoculate subcutaneously on the armpit back of mice. On the next day, the animals were randomly grouped and administration began (recorded as Day 0). […] On the day of treatment, weight was measured, 20µL of blood was obtained by taking blood from the eye socket and the blood routine analysis was performed, the tumor block was peeled off, weighed and photographed, and the tumor suppression rate was calculated.
# The tumor suppression rate [(The average weight of the tumor in the normal control group - the average weight of the tumor in the experimental group) / The average weight of the tumor in the normal control group × 100 %] and average value, standard deviation and standard errors of tumor weight were calculated. The data from the groups were compared with each other by T.TEST, and P<0.05 was considered as a significant difference.
# [4] = tested on: Lewis lung cancer
# Method: • Preparation of experimental animals: The experimental animals were adapted to the experimental environment (temperature 22°C±2°C, relative humidity 50%±2%) for 1 day. • Subcutaneous inoculation of Lewis cell suspension to replicate mouse breast cancer model: The Lewis tumor tissue was ground into a suspension with a glass homogenizer, the tumor suspension was aspirated with a syringe, the number of live cells was calculated, the concentration of the cells was adjusted to 2.6*10^6/ml with physiological saline, and then the suspension was injected to the left armpit of the mouse with 0.2 ml/mouse. […] On the day of the treatment, the weight was measured, 20µl of blood was obtained from the orbital blood and the routine blood analysis was performed. The tumor blocks were stripped, weighed and photographed, and the tumor suppression rate was calculated.
# The tumor suppression rate [(The average weight of the tumor in the normal control group - the average weight of the tumor in the experimental group) / The average weight of the tumor in the normal control group × 100 %] and the average value, standard deviation and standard errors of tumor weight were calculated. The data from the groups were compared with each other by T.TEST, and P<0.05 was considered as a significant difference.
compound,measurement,setting,value
COc1cccc(C2(O)CCCCC2CN(C)C)c1 (centres unmarked) [Tramadol Hydrochloride],Number of writhing,[1],1.75±4.56
CC(C)(C)NC(=O)[C@H]1CC[C@H]2[C@@H]3CC[C@H]4NC(=O)C=C[C@]4(C)[C@H]3CC[C@]12C [finasteride],wet weight of the prostate,[2]; after 30 days of oral administration,40.4 ± 9.2 mg
same,"pathological damage of prostatic hyperplasia (histopathology, H&E)","[2]; compared with the model group, 30 days oral","the trend of hyperplasia improves, but there is no statistical difference"
same,prostate index,"[2]; wet weight of the prostate (mg)/body weight of the mouse (g), 30 days oral",0.95±0.24
O=P1(N(CCCl)CCCl)NCCCO1 (centres unmarked) [Cyclophosphamide],Tumor weight,[3],0.26 ± 0.11 g
same,Change of weight (g) After administration,"[4]; body weight after administration, cyclophosphamide 0.1 g/kg intraperitoneally single time, YK93-5 2 g/kg intragastric daily for 17 days",21.07 ± 1.61 g
same,Change of weight (g) Before administration,[4]; body weight before administration,20.52 ± 1.83 g
same,Tumor suppression (%),"[4]; cyclophosphamide 0.1 g/kg intraperitoneally single time, YK93-5 2 g/kg intragastric daily for 17 days",91.22%
